What follows are compounds tested against PD-L1 His protein / PD-1 Fc protein (Homo sapiens, UniProt Q9NZQ7) (assay: HTRF Assay (PD-1/PD-L1 interaction)). Details: PD-L1 His 6 nM, PD-1 Fc 6 nM.
Type: binding
How it was run: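 HTRF: PD-L1 His (6 nM final), compound (3-fold dilutions, 20 μM to 0.001 μM final) and PD-1 Fc (6 nM final) preincubated 15 min at room temperature. Anti-human IgG-XL665 and anti-6HIS Tb cryptate (mixed at 6.7 nM and 0.35 nM) then added for 1 h at room temperature before reading.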

Sequence of PD-L1 His protein / PD-1 Fc protein (Q9NZQ7 19-238 limits assumed): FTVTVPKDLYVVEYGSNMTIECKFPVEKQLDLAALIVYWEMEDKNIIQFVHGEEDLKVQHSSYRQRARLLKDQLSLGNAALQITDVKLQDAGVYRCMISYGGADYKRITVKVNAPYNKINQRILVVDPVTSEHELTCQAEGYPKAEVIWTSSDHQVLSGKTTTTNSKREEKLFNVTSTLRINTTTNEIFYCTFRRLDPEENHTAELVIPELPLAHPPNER

First: COc1cc(-c2cccc(-c3cccc(-c4ccc(CNC[C@@H]5CCC(=O)N5)c(OC)n4)c3Cl)c2Cl)cc2c1CN(CCO)CC2 [Example 455, (S)-5-((((6-(2,2′-Dichloro-3′-(2-(2-hydroxyethyl)-8-methoxy-1,2,3,4-tetrahydroisoquinolin-6-yl)-[1,1′-biphenyl]-3-yl)-2-methoxypyridin-3-yl)methyl)amino)methyl)pyrrolidin-2-one]
Second: COC(=O)[C@H]1CCN(Cc2c(C)nc3cc(-c4cccc(-c5cccc(-c6ccc(CNC[C@@H]7CCC(=O)N7)c(OC)n6)c5Cl)c4Cl)ccn3c2=O)C1 [Example 265, (S)-Methyl 1-((8-(2,2′-dichloro-3′-(6-methoxy-5-(((((S)-5-oxopyrrolidin-2-yl)methyl)amino)methyl)pyridin-2-yl)-[1,1′-biphenyl]-3-yl)-2-methyl-4-oxo-4H-pyrido[1,2-a]pyrimidin-3-yl)methyl)pyrrolidine-3-carboxylate]
The IC50 of the first is 17-fold higher: 12 nM for the first, 0.7 nM for the second.

Compared with `Cc1c(-c2ccn3c(=O)c(CNC[C@@H]4CCC(=O)N4)cnc3c2)cccc1-c1cccc(-c2ccc(CNC[C@@H]3CCC(=O)N3)c(OC(F)(F)F)c2)c1Cl` [Example 88, 8-(2′-Chloro-2-methyl-4″-(((((S)-5-oxopyrrolidin-2-yl)methyl)amino)methyl)-3″-(trifluoromethoxy)-[1,1′:3′,1″-terphenyl]-3-yl)-3-(((((S)-5-oxopyrrolidin-2-yl)methyl)amino)methyl)-4H-pyrido[1,2-a]pyrimidin-4-one], `Cn1cc(CNC[C@@H]2CCC(=O)N2)c2ccc(-c3cccc(-c4cccc(-c5ccn6c(=O)c(CNC[C@@H]7CCC(=O)N7)cnc6c5)c4Cl)c3Cl)nc21` [Example 416, 8-[2-Chloro-3-[2-chloro-3-[1-methyl-3-[[[(2S)-5-oxopyrrolidin-2-yl]methylamino]methyl]pyrrolo[2,3-b]pyridin-6-yl]phenyl]phenyl]-3-[[[(2S)-5-oxopyrrolidin-2-yl]methylamino]methyl]pyrido[1,2-a]pyrimidin-4-one] is 6.5-fold higher in IC50: 11 nM for the first, 71 nM for the second.

First: COc1nc(-c2cccc(-c3cccc(-c4ccn5c(=O)c(CNC[C@@H]6CCC(=O)N6)c(Cl)nc5c4)c3Cl)c2Cl)ccc1CNC[C@@H]1CCC(=O)N1 [Example 227, 2-Chloro-8-(2,2′-dichloro-3′-(6-methoxy-5-(((((S)-5-oxopyrrolidin-2-yl)methyl)amino)methyl)pyridin-2-yl)-[1,1′-biphenyl]-3-yl)-3-(((((S)-5-oxopyrrolidin-2-yl)methyl)amino)methyl)-4H-pyrido[1,2-a]pyrimidin-4-one]
Second: COc1nc(-c2cccc(-c3cccc(-c4cnc5cc(CNC[C@@H]6CCC(=O)N6)oc5c4)c3Cl)c2Cl)ccc1CNC[C@@H]1CCC(=O)N1 [Example 311, (S)-5-((((6-(2,2′-Dichloro-3′-(2-(((((S)-5-oxopyrrolidin-2-yl)methyl)amino)methyl)furo[3,2-b]pyridin-6-yl)-[1,1′-biphenyl]-3-yl)-2-methoxypyridin-3-yl)methyl)amino)methyl)pyrrolidin-2-one]
The IC50 of the first is 2.4-fold higher: 12 nM for the first, 5 nM for the second.

First: COc1nc(-c2cccc(-c3cccc(-c4cc5c(=O)n(C)c(CN6CC(C)(C#N)C6)nn5c4)c3Cl)c2Cl)ccc1CNC[C@@H]1CCC(=O)N1 [Example 470, 1-[[6-[2-chloro-3-[2-chloro-3-[6-methoxy-5-[[[(2S)-5-oxopyrrolidin-2-yl]methylamino]methyl]-2-pyridyl]phenyl]phenyl]-3-methyl-4-oxo-pyrrolo[2,1-f][1,2,4]triazin-2-yl]methyl]-3-methyl-azetidine-3-carbonitrile]
Second: COc1nc(-c2cccc(-c3cccc(-c4cc5c(=O)n(C)c(CN6CC(C)(O)C6)nn5c4)c3Cl)c2Cl)cc(Cl)c1CNC[C@@H]1CCC(=O)N1 [Example 492, (S)-6-(2,2′-Dichloro-3′-(4-chloro-6-methoxy-5-((((5-oxopyrrolidin-2-yl)methyl)amino)methyl)pyridin-2-yl)-[1,1′-biphenyl]-3-yl)-2-((3-hydroxy-3-methylazetidin-1-yl)methyl)-3-methylpyrrolo[2,1-f][1,2,4]triazin-4(3H)-one]
The IC50 of the first is 62-fold higher: 37 nM for the first, 0.6 nM for the second.

`COc1nc(-c2cccc(-c3cccc(-c4ccn5c(=O)c(CNC6CCN(C(C)=O)CC6)cnc5c4)c3Cl)c2Cl)ccc1CNC[C@@H]1CCC(=O)N1` [Example 256, 3-[[(1-Acetyl-4-piperidyl)amino]methyl]-8-[2-chloro-3-[2-chloro-3-[6-methoxy-5-[[[(2S)-5-oxopyrrolidin-2-yl]methylamino]methyl]-2-pyridyl]phenyl]phenyl]pyrido[1,2-a]pyrimidin-4-one] and `CNC(=O)C1CN(Cc2cnc3cc(-c4cccc(-c5cccc(-c6ccc(CNC[C@@H]7CCC(=O)N7)c(OC)n6)c5Cl)c4Cl)ccn3c2=O)C1` [Example 255, (S)-1-((8-(2,2′-Dichloro-3′-(6-methoxy-5-((((5-oxopyrrolidin-2-yl)methyl)amino)methyl)pyridin-2-yl)-[1,1′-biphenyl]-3-yl)-4-oxo-4H-pyrido[1,2-a]pyrimidin-3-yl)methyl)-N-methylazetidine-3-carboxamide] are the same in IC50: 0.1 nM for the first, 0.1 nM for the second.

First: COc1nc(-c2cccc(-c3cccc(-c4cn5c(CNC[C@@H]6CCC(=O)N6)cnc5cn4)c3Cl)c2Cl)ccc1CNC[C@@H]1CCC(=O)N1 [Example 309, (S)-5-((((6-(2,2′-Dichloro-3′-(3-(((((S)-5-oxopyrrolidin-2-yl)methyl)amino)methyl)imidazo[1,2-a]pyrazin-6-yl)-[1,1′-biphenyl]-3-yl)-2-methoxypyridin-3-yl)methyl)amino)methyl)pyrrolidin-2-one]
Second: COc1nc(-c2cccc(-c3cccc(-c4cc5ncc(CNCCO)cc5cn4)c3Cl)c2Cl)ccc1CNC[C@@H]1CCC(=O)N1 [Example 334, (S)-5-((((6-(2,2′-Dichloro-3′-(3-(((2-hydroxyethyl)amino)methyl)-1,6-naphthyridin-7-yl)-[1,1′-biphenyl]-3-yl)-2-methoxypyridin-3-yl)methyl)amino)methyl)pyrrolidin-2-one]
The IC50 of the first is 3-fold higher: 0.3 nM for the first, 0.1 nM for the second.

Going from `Cc1c(/C=C(\F)c2ccc(CNCCO)cn2)cccc1-c1cccc(-c2ccn3c(=O)c(CNCCO)cnc3c2)c1C` [Example 21, (Z)-8-(3′-(2-Fluoro-2-(5-(((2-hydroxyethyl)amino)methyl)pyridin-2-yl)vinyl)-2,2′-dimethyl-[1,1′-biphenyl]-3-yl)-3-(((2-hydroxyethyl)amino)methyl)-4H-pyrido[1,2-a]pyrimidin-4-one] to `Cc1c(COc2cc(OCc3cncc(C#N)c3)c(CNCCO)cc2Cl)cccc1-c1cccc(-c2ccn3c(=O)c(CNCCO)cnc3c2)c1C#N` [Example 25, 5-((4-Chloro-5-((2′-cyano-3′-(3-(((2-hydroxyethyl)amino)methyl)-4-oxo-4H-pyrido[1,2-a]pyrimidin-8-yl)-2-methyl-[1,1′-biphenyl]-3-yl)methoxy)-2-(((2-hydroxyethyl)amino)methyl)phenoxy)methyl)nicotinonitrile], the IC50 falls from 4.8 nM to 0.3 nM (16-fold).

Compared with `COc1nc(-c2cccc(-c3cccc(-c4ccn5c(=O)c(CN6C[C@H](O)C[C@@H]6C(=O)O)cnc5c4)c3Cl)c2Cl)ccc1CNC[C@@H]1CCC(=O)N1` [Example 134, (2R,4R)-1-((8-(2,2′-Dichloro-3′-(6-methoxy-5-(((((S)-5-oxopyrrolidin-2-yl)methyl)amino)methyl)pyridin-2-yl)-[1,1′-biphenyl]-3-yl)-4-oxo-4H-pyrido[1,2-a]pyrimidin-3-yl)methyl)-4-hydroxypyrrolidine-2-carboxylic acid], `COC(=O)C1CN(Cc2c(C)nc3cc(-c4cccc(-c5cccc(-c6ccc(CNC[C@@H]7CCC(=O)N7)c(OC)n6)c5Cl)c4Cl)ccn3c2=O)C1` [Example 296, (S)-Methyl 1-((8-(2,2′-dichloro-3′-(6-methoxy-5-((((5-oxopyrrolidin-2-yl)methyl)amino)methyl)pyridin-2-yl)-[1,1′-biphenyl]-3-yl)-2-methyl-4-oxo-4H-pyrido[1,2-a]pyrimidin-3-yl)methyl)azetidine-3-carboxylate] is 2.2-fold lower in IC50: 1.1 nM for the first, 0.5 nM for the second. The second is the more potent here.

Going from `COc1nc(-c2cccc(-c3cccc(-c4cn5cc(CNCCO)ccc5n4)c3Cl)c2Cl)ccc1CNCCO` [Example 100, 2-(((2-(2,2′-Dichloro-3′-(5-(((2-hydroxyethyl)amino)methyl)-6-methoxypyridin-2-yl)-[1,1′-biphenyl]-3-yl)imidazo[1,2-a]pyridin-6-yl)methyl)amino)ethan-1-ol] to `COc1nc(-c2cccc(-c3cccc(-c4ccc5nn(CCCN6C(=O)c7ccccc7C6=O)c(=O)n5c4)c3Cl)c2Cl)ccc1CNC[C@@H]1CCC(=O)N1` [Example 391, (S)-2-(3-(6-(2,2′-Dichloro-3′-(6-methoxy-5-((((5-oxopyrrolidin-2-yl)methyl)amino)methyl)pyridin-2-yl)-[1,1′-biphenyl]-3-yl)-3-oxo-[1,2,4]triazolo[4,3-a]pyridin-2(3H)-yl)propyl)isoindoline-1,3-dione], the IC50 rises from 4.3 nM to 65 nM (15-fold).

Compared with `O=C1CC[C@@H](CNCc2ccc3nc(-c4cccc(-c5cccc(-c6cc(=O)n7cc(CNC[C@@H]8CCC(=O)N8)ccc7n6)c5Cl)c4Cl)cc(=O)n3c2)N1` [Example 60, 2,2′-(2,2′-Dichloro-[1,1′-biphenyl]-3,3′-diyl)bis(7-(((((S)-5-oxopyrrolidin-2-yl)methyl)amino)methyl)-4H-pyrido[1,2-a]pyrimidin-4-one)], `COc1nc(-c2cccc(-c3cccc(-c4ccn5c(=O)c(CN6CC[C@H](C(=O)O)C6)cnc5c4)c3Cl)c2Cl)cnc1CN1CC(CO)C1` [Example 92, (S)-1-((8-(2,2′-Dichloro-3′-(5-((3-(hydroxymethyl)azetidin-1-yl)methyl)-6-methoxypyrazin-2-yl)-[1,1′-biphenyl]-3-yl)-4-oxo-4H-pyrido[1,2-a]pyrimidin-3-yl)methyl)pyrrolidine-3-carboxylic acid] is 1500-fold lower in IC50: 460 nM for the first, 0.3 nM for the second. The second is the more potent here.
